target: cAMP and cAMP-inhibited cGMP 3',5'-cyclic phosphodiesterase 10A (Homo sapiens, UniProt Q9Y233); assay: PDE10A assay
Experimental: Compounds were diluted in 20 mM HEPES/NaOH (pH 7.5), 10 mM MgCl2 and 0.05 mg/ml bovine serum albumin. A fixed amount of 2 ng/well human PDE10A enzyme was added and incubated at room temperature for 15 min under agitation. The reaction was started by the addition of the substrate cocktail [3H]cGMP (Perkin Elmer NET337001MC, S.A. 13.5 Ci/mmol) / cGMP at a final concentration of 50 nM and incubated for an additional 15 min. The reaction was stopped by the addition of 0.5 mg/well of Y-Si SPA beads. The plates were shaken for 1 h, followed by a brief centrifugation (170 g for 1 min). The radioactivity bound to the beads was estimated using a TopCount (Perkin-Elmer). For the determination of IC50 values, a four parameters logistics equation was used. pIC50 is defined as − log10(IC50).

Compared with Cc1ncc(C)n2nc(/C=C/c3nc(N4CC[C@@H](NC(=O)OC(C)(C)C)C4)nn3C)nc12 [Roche-Dataset for PDE10A, Compound 1132], CCN(C)C(=O)c1cnn(C)c1C(=O)Nc1ccn2nc(N3CCOCC3)nc2c1 [Roche-Dataset for PDE10A, Compound 315] is 130-fold lower in IC50: 0.752 µM for the first, 0.00567 µM for the second.

O=C(Nc1ccnn1S(=O)(=O)C(F)(F)F)c1nc(C2CC2)ccc1Nc1cncnc1 [Roche-Dataset for PDE10A, Compound 1004] and COCCn1nccc1NC(=O)c1nc(C2CC2)ccc1Nc1cncnc1 [Roche-Dataset for PDE10A, Compound 868] are within 1.5-fold of each other in IC50: 0.03 µM for the first, 0.043 µM for the second.

Compared with CCN(CC)C(=O)c1c(C)noc1C(=O)Nc1ccn2nc(-c3ccccc3)nc2c1 [Roche-Dataset for PDE10A, Compound 258], O=C(Nc1ccn2nc(-c3ccccc3)nc2c1)c1cc(Cl)nc(N2CCCC2)c1 [Roche-Dataset for PDE10A, Compound 132] is 65-fold lower in IC50: 3.12 µM for the first, 0.048 µM for the second. The second is the more potent here.

First: O=C1c2ccccc2C(=O)N1CCc1csc(-c2ccccc2)n1 [Roche-Dataset for PDE10A, Compound 177]
Second: Cc1nc2ccccc2nc1CCc1nc(-c2ccccc2)cn1CC(F)(F)F [Roche-Dataset for PDE10A, Compound 72]
The IC50 of the first is 14-fold higher: 2.52 µM for the first, 0.178 µM for the second. The second is the more potent here.

Going from Cn1ncc(C(=O)N2CCC2)c1C(=O)N[C@@H]1CCn2cc(-c3ccc(F)cc3)nc2C1 [Roche-Dataset for PDE10A, Compound 261] to COc1ccc(-c2nc3cc(NC(=O)c4c(C(=O)N5CCC5)cnn4C)ccn3n2)cc1 [Roche-Dataset for PDE10A, Compound 820], the IC50 rises from 0.00454 µM to 0.0079 µM (1.7-fold). The first is the more potent here.

Cc1c(Cl)cc(Cl)c2nc(CCc3cn4cccnc4n3)nn12 [Roche-Dataset for PDE10A, Compound 785] and Cc1c(Cl)cc(Cl)c2nc(CCc3nn(C)cc3Cl)nn12 [Roche-Dataset for PDE10A, Compound 861] are within 1.5-fold of each other in IC50: 0.36 µM for the first, 0.333 µM for the second.

Going from Cn1ncc(C(=O)N2CC(F)C2)c1C(=O)Nc1ccn2nc(N3CCOCC3)nc2c1 [Roche-Dataset for PDE10A, Compound 372] to Cc1cc(NC(=O)c2c(C(=O)N3CCC3)cnn2C)cc(N)n1 [Roche-Dataset for PDE10A, Compound 1077], the IC50 rises from 0.00499 µM to 0.131 µM (26-fold). The first is the more potent here.

CC(C)n1ccc(NC(=O)c2c(C(=O)N3CCC3)cnn2C)n1 [Roche-Dataset for PDE10A, Compound 1118] and Cc1cc(NC(=O)c2c(C(=O)N3CCC3)cnn2C)n[nH]1 [Roche-Dataset for PDE10A, Compound 1149] are within 1.5-fold of each other in IC50: 1.83 µM for the first, 2.68 µM for the second.

First: Cn1ncc(C(=O)N2CCC2)c1C(=O)Nc1cc(C2CCCCC2)n(C2CCCC2)n1 [Roche-Dataset for PDE10A, Compound 1101]
Second: CNC(=O)c1cc(NC(C)=O)ccc1NC(=O)c1nc(C2CC2)cnc1Nc1cncnc1 [US8703768, 274]
The IC50 of the first is 2100-fold higher: 0.783 µM for the first, 0.00038 µM for the second. The second is the more potent here.

CCc1nc(C)c(C(=O)Nc2cc3nc(-c4ccccc4)[nH]c3cc2C(=O)NCC2(C)COC2)o1 [Roche-Dataset for PDE10A, Compound 178] and Cc1nc2cc(Cl)ccc2nc1OCc1nc(-c2ccccc2)cn1C [Roche-Dataset for PDE10A, Compound 587] are within 1.5-fold of each other in IC50: 0.00353 µM for the first, 0.00405 µM for the second.

First: CCOC(=O)Cc1csc(NC(=O)c2nc(C3CC3)cnc2Nc2cncnc2)n1 [Roche-Dataset for PDE10A, Compound 914]
Second: Cn1cc(-c2ccccc2)nc1CCNC(=O)c1nc(C2CC2)cnc1Nc1cncnc1 [Roche-Dataset for PDE10A, Compound 36]
The IC50 of the first is 3.2-fold lower: 0.00499 µM for the first, 0.016 µM for the second.

Compared with CCn1nccc1NC(=O)c1ccc2cc(-c3ccccc3)nn2c1 [Roche-Dataset for PDE10A, Compound 654], Cc1ccc(C)c(C(=O)Nc2cc(-c3ccccn3)nn2C)n1 [Roche-Dataset for PDE10A, Compound 726] is 5.8-fold higher in IC50: 0.575 µM for the first, 3.34 µM for the second.

Compared with O=C(Nc1cnc(Cl)cn1)c1nc(C2CC2)ccc1Nc1cncnc1 [Roche-Dataset for PDE10A, Compound 1090], Cc1ncn(C)c1C(=O)Nc1cc(-c2ccccn2)nn1C [Roche-Dataset for PDE10A, Compound 772] is 68-fold higher in IC50: 0.146 µM for the first, 10 µM for the second.
